Data as given in publication PMC12626088 (RSC Advances, 2025).
Converted amounts (≈) assume the structure as drawn.

Experiments:
α-glucosidase = α-glucosidase inhibition assay; format: biochemical; settings: sample described as 'SR (compound 4a) methanolic extract'
α-amylase = α-amylase inhibition assay; format: biochemical; settings: sample described as 'SR (compound 4a) methanolic extract'

IC50 (α-glucosidase): 111.42 µg/mL (≈ 402 µM) | IC50 (α-amylase): 112.98 µg/mL (≈ 407 µM)
Structure (SMILES): C(#CC(c1ccccc1)N1CCOCC1)c1ccccc1 (centres unmarked) [4a, 4-(1,3-diphenylprop-2-yn-1-yl)morpholine]
